Laboratory results: US8999984B2, “Macrophage migration inhibitory factor antagonists and methods of using same” (University of Louisville Research Foundation, Inc., priority 2006, dated 2015)
d = 2'-deoxy (DNA); r = 2'-OH (RNA)

Tests used:
A549 cells = test: A549 cell migration in collagen coated transwell chambers; format: cell-based, human; conditions: FIG. 10B
Protocol: In FIG. 10A, 500 nM rMIF was pre-mixed for 30 seconds with the indicated inhibitor concentrations followed by the addition of 2 mM final concentration of L-dopachrome methyl ester substrate. 5 minutes later OD 475 was measured spectrophotometrically (tautomerization leads to colorless substrate) and resulting data graphed. In FIG. 10B, 2×10^5 A549 cells transfected or pre-incubated with the indicated inhibitor or DMSO were added to the upper chamber of collagen coated transwell chambers. 16 hours later cells in the upper chamber were removed by swabbing and the bottom of the membranes were stained with crystal violet, solubilized, read at OD 570, and resulting data graphed.

recombinant MIF (rMIF) = molecular target: T1, recombinant MIF (rMIF) (Homo sapiens, UniProt P14174); test: L-dopachrome methyl ester tautomerase assay; format: biochemical
T1 construct: made in house
T1 sequence (P14174 2-115 limits assumed): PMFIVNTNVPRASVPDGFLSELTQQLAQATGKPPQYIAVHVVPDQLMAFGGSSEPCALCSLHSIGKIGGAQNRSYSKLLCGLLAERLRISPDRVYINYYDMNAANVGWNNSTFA
Protocol: 500 nM recombinant MIF (rMIF) was pre-mixed for either 5 (filled) or 10 (open) minutes with the indicated inhibitor concentrations followed by the addition of 2 mM final concentration of L-dopachrome methyl ester substrate. 5 minutes later OD 475 was measured spectrophotometrically, with tautomerization leading to colorless substrate.
Dopachrome tautomerase assay. […] MIF catalysis and inhibitory studies can be performed as described (Lubetsky et al., 2002). […] Activity can be determined at room temperature by adding dopachrome methyl ester (0.3 ml) to a cuvette containing 500 nM rMIF (Bernhagen et al., 1994) in 50 mM potassium phosphate buffer, pH 6, 0.5 mM EDTA and 5 minutes later measuring the decrease in absorbance at 475 nm spectrophotometrically. […] Additionally, candidate inhibitors identified in the last section of the present Example can be dissolved in DMSO at various concentrations and added to the cuvette (final concentration of DMSO will be no more than 0.1%) with the MIF 1 minute prior to the addition of the dopachrome substrate.

[1] = system: A549 human lung adenocarcinoma cells; test: A549 anchorage-independent growth in soft agar; format: cell-based; conditions: 10, 50 or 100 μM, 20 days; FIG. 11
Protocol: FIG. 11 is a graph showing inhibitors of MIF prevent anchorage-independent growth. 10^5 A549 human lung adenocarcinoma cells were plated in soft agar, containing vehicle (0.1% DMSO) or 10, 50 or 100 μM ISO-1 or 4-iodo-6-phenylpyrimidine (CMPD 16). 20 days later, colonies were stained and enumerated. Data are representative of two independent experiments.

HIF-1α [2] = test: CoCl2-induced HIF-1α stabilization in MIA-PaCa pancreatic adenocarcinoma cells (nuclear lysate immunoblot); format: cell-based, human
Protocol: FIGS. 9A-9C are pictures of immunoblots showing MIF tautomerase inhibitors block HIF-1 stabilization in an MIF-specific manner. […] After 5 hours, nuclear lysates were isolated and subjected to immunoblotting for HIF-1. In FIGS. 9A and 9B, MIA-PaCa pancreatic adenocarcinoma cells were used. In FIG. 9C, MIF+/+ and MIF−/− mouse embryonic fibroblasts were evaluated.
As noted hereinabove, (see FIG. 4), it has been determined that MIF is necessary for hypoxia and prolyl hydroxylase inhibitor-induced HIF-1αstabilization and subsequent hypoxic adaptation of pancreatic adenocarcinoma cells. It was next tested whether MIF pharmacologic inhibitors were capable of recapitulating the destabilizing effects on HIF-1α we had observed using MIF siRNA (FIG. 4). In addition to testing the newly-determined MIF antagonist 4-iodo-6-phenylpyrimidine (also referred to as “compound #16”), the TI compound identified in the Orita screen (FIG. 8) was also tested.

MIF/sCD74 = molecular target: T2, MIF/sCD74 (Homo sapiens, UniProt P14174); test: MIF/MIF receptor (CD74) capture assay; format: binding; conditions: 0.1 μM antagonist against 0.2 μM biotinylated MIF (maximal inhibition possible 50%); FIG. 14B
T2 construct: made in house; host or cells: E. coli BL21 (DE3)pLysS (sCD74)
T2 sequence (P14174 2-115 limits assumed): T1 sequence (P14174 2-115 limits assumed)
Protocol: FIGS. 14A-14C are a schematic (FIG. 14C) of a MIF/MIF receptor capture assay and graphs of data collected from the assay (FIGS. 14A and 14B) that provides a tool for structure-function studies of MIF muteins and candidate inhibitors. […] FIG. 14A is a graph of data from the assay where CD74 coated plates were pre-incubated with the indicated concentrations of native MIF (MIF), denatured MIF or P1G MIF followed by the addition of 0.2 μM biotin-hrMIF. FIG. 14B is a graph of data from the assay where 1.0 μM of denatured MIF (dMIF), native MIF (MIF) or anti-CD74 were pre-incubated with soluble CD74 for 30 mins before adding 0.2 μM biotin-hrMIF. For inhibitors, 0.1 μM ISO-1 or 4-iodo-6-phenyl pyrimidine (Cmp16) were pre-incubated for 30 mins with 0.2 μM biotin-hrMIF before adding mixture to CD74 coated plate. In both FIGS. 14A and 14B, plates were developed 2 hours later by incubating Streptavidin-AP followed by PnPP and measurement at OD405.
As previously noted, the ability of small molecule antagonists to block MIFs biological functions requires the blockade of MIF binding to its cell surface receptor (Meyer-Siegler et al., 2006). […]
96 well plates can be coated with 60 μl/well of purified, soluble CD74 (CD74^73-232) at 0.1 mg/ml and incubated at 4° C. overnight. […] After washing, 60 μl/well of PNPP (Sigma) is added and allowed to develop in the dark until being read at 405 nm.

VEGF = test: CoCl2-induced VEGF expression and secretion (ELISA); format: cell-based; conditions: read-out: suppression of PHD inhibitor (CoCl2) induced VEGF
Text: It was next tested whether the observed differences in the catalytic inhibitory activities between these two compounds was similarly observed in this biological assay of MIF inhibition. […] Of note, this ˜5 fold difference in biological inhibitory activity closely corresponds to the ˜5 fold difference in enzymatic inhibitory activity that was observed when comparing these two compounds (FIG. 8).

MIF = MIF depletion by siRNA in MIA-Paca-2 cells (immunoblot); format: cell-based, human; conditions: FIG. 4A
Protocol: (§1) Nuclear and cytosolic extracts from MIF-depleted cells were exposed to normoxia, anoxia (FIG. 4A) or hypoxia (FIG. 4B) and immunoblotted for HIF-1α. FIG. 4C is a graph showing real time PCR analysis of VEGF mRNA levels from control and MIF-depleted cells exposed to hypoxia for different times.
(§2) MIF-specific siRNA was transfected into MIA-Paca-2 cells before being incubated in 0.2% O2 (anoxia) for 16 hours. […] To more thoroughly investigate the requirements for MIF in hypoxia-mediated HIF-1α stabilization, a time course evaluating MIF containing vs. deficient pancreatic adenocarcinoma cells exposed to 1% O2 (hypoxia) was performed.

HIF-1α [3] = test: Anoxia-induced HIF-1α stabilization in siRNA transfected MIA-Paca-2 cells; format: cell-based, human; conditions: 0.2% O2 (anoxia) 16 hours; FIG. 4A
Protocol: as §1, §2

Compound: COC(=O)CC1CC(c2ccc(O)cc2)=NO1 (centres unmarked) [ISO-1, S, R-3-(4-hydroxyphenyl)-4,5-dihydro-5-isoxazole acetic acid methyl ester, reference compound]
- migration inhibition at 10 μM (A549 cells): completely inactive
- enzyme inhibition at 10 μM (recombinant MIF (rMIF); 10 μM, FIG. 10A): completely inactive
- inhibition of A549 soft agar growth [1]: inhibit A549 soft agar growth
- inhibition of CoCl2-induced HIF-1α stabilization (HIF-1α [2]; concentrations of 100 μM or higher): only moderately effective
- inhibition of MIF receptor (CD74) binding (MIF/sCD74): very efficient blocking

Compound: O=c1c(-c2ccc(O)c(O)c2)coc2cc(O)ccc12 [TI, 3′, 4′,7-tryhydroxyisoflavone, reference compound]
- inhibition at 50 µM (VEGF): ~20%
- MIF inhibitory activity in applicant's assay compared with reported Ki (recombinant MIF (rMIF); TI from two commercial sources): several orders of magnitude weaker than claimed
- suppression of HIF-1α, of control (HIF-1α [2]; 10 μM, FIG. 9B): no inhibitory activity
- inhibition of HIF-1α stabilization (HIF-1α [2]; 50 μM, FIG. 9B): only slight inhibitory activity

Compound: MIF siRNA: short interfering RNA (siRNA) oligos designed against human MIF; sense SEQ ID NO:3, antisense SEQ ID NO:4 (sense CCUUCUGGUGGGGAGAAAUTT; antisense AUUUCUCCCCACCAGAAGGTT; sugars from the 5' end r19 d2, backbone not given here)
- loss of cytoplasmic MIF expression (MIF): greater than 90%
- HIF-1α stabilization in nuclei after MIF depletion (HIF-1α [3]): completely deficient
